Assay results reported in US8501755B2, “Tetrahydropyridothienopyrimidine compounds and methods of use thereof” (Bayer Intellectual Property GmbH, priority 2006, dated 2013).

Assays:
Type in all cases: cell-based
[1] = tested on: A431 cells; assay: In vitro tumor cell proliferation assay (Cell Titer-Glo) in A431 cells; conditions: Homo sapiens, A-431, 72 h, A431 human epidermoid carcinoma overexpressing HER1; 72 hours exposure; read-out: IC50, activities in A431 cell lines
How it was run: (§1)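 Viability after 72 h drug exposure at 37 °C was read as CellTiter-Glo ATP luminescence, giving IC50. Cells (2.5×10^3/well, RPMI + 10% FBS) were compound-treated one day post-seeding, 0.1% DMSO final: A431 overexpresses HER1, N87 overexpresses HER2 and HER1.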

[2] = tested on: N87; assay: In vitro tumor cell proliferation assay (Cell Titer-Glo) in N87 cells; conditions: N87 human gastric carcinoma overexpressing HER2 and HER1; 72 hours exposure; read-out: IC50, activities in N87 cell lines
How it was run: as §1

[3] = tested on: H1975 cells; assay: In vitro tumor cell proliferation assay (Cell Titer-Glo) in H1975 cells; conditions: NCI-H1975; H1975 human NSCLC expressing mutant HER1 (L858R,T790M); 72 hours exposure; read-out: IC50, activities in H 1975 cell lines
How it was run: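 After 72 h compound exposure at 37° C (top 10 uM down to 64 pM, 0.1% DMSO), viability of EGFR L858R/T790M-mutant H1975 cells was read as ATP luminescence.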

Row | IC50 [1] [nM] | IC50 [2] [nM] | IC50 [3] [nM] | Structure (SMILES)
1 | < 200 | < 200 | < 200 | CC(C)N(C)C/C=C/C(=O)N1CCc2c(sc3ncnc(Nc4ccc5c(cnn5Cc5cccc(F)c5)c4)c23)C1 [Example 123, N-[1-(3-fluorobenzyl)-1H-indazol-5-yl]-7-{(2E)-4-[isopropyl(methyl)amino]but-2-enoyl}-5,6,7,8-tetrahydropyrido [4′,3′:4,5]thieno[2,3-d]pyrimidin-4-amine]
2 | 1000 to 10000 | < 200 | 1000 to 10000 | O=C(/C=C/CN1CCSCC1)N1CCc2c(sc3ncnc(Nc4ccc(F)c(Cl)c4)c23)C1 [Example 42, N-(3-chloro-4-fluorophenyl)-7-[(2E)-4-thiomorpholin-4-ylbut-2-enoyl]-5,6,7,8-tetrahydropyrido [4′,3′:4,5]thieno[2,3-d]pyrimidin-4-amine]
3 | 1000 to 10000 | < 200 | 1000 to 10000 | CN(C)C/C=C/C(=O)N1CCc2c(sc3ncnc(Nc4cc(F)cc(Cl)c4)c23)C1 [Example 181, N-(3-chloro-5-fluorophenyl)-7-[(2E)-4-(dimethylamino)but-2-enoyl]-5,6,7,8-tetrahydropyrido [4′,3′:4,5]thieno[2,3-d]pyrimidin-4-amine]
4 | 200 to 1000 | < 200 | 200 to 1000 | CN(C)C/C=C/C(=O)N1CCc2c(sc3ncnc(Nc4ccc(F)c(Br)c4)c23)C1 [Example 176, N-(3-bromo-4-fluorophenyl)-7-[(2E)-4-(dimethylamino)but-2-enoyl]-5,6,7,8-tetrahydropyrldo [4′,3′:4,5]thieno[2,3-d]pyrimidin-4-amine]
5 | 200 to 1000 | < 200 | 200 to 1000 | O=C(C#CCCN1CCCCC1)N1CCc2c(sc3ncnc(Nc4ccc(F)c(Cl)c4)c23)C1 [Example 140, N-(3-chloro-4-fluorophenyl)-7-(5-piperidin-1-ylpent-2-ynoyl)-5,6,7,8-tetrahydropyrido [4′,3′:4,5]thieno[2,3-d]pyrimidin-4-amine]
6 | < 200 | < 200 | < 200 | CCN(C/C=C/C(=O)N1CCc2c(sc3ncnc(Nc4ccc(Cl)c(Cl)c4)c23)C1)C(C)C [Example 205, N-(3,4-dichlorophenyl)-7-{(2E)-4-[ethyl(isopropyl)amino]but-2-enoyl}-5,6,7,8-tetrahydropyrido [4′,3′:4,5]thieno[2,3-d]pyrimidin-4-amine]
7 | 200 to 1000 | < 200 | < 200 | CC(C)N(C)C/C=C/C(=O)N1CCc2c(sc3ncnc(Nc4ccc5c(ccn5Cc5ccccn5)c4)c23)C1 [Example 117, 7-{(2E)-4-[isopropyl(methyl)amino]but-2-enoyl}-N-[1-(pyridin-2-ylmethyl)-1H-indol-5-yl]-5,6,7,8-tetrahydropyrido [4′,3′:4,5]thieno[2,3-d]pyrimidin-4-amine]
8 | < 200 | < 200 | 1000 to 10000 | C#Cc1cccc(Nc2ncnc3sc4c(c23)CCN(C(=O)/C=C/CN2CCOCC2)C4)c1 [Example 15, N-(3-ethynylphenyl)-7-[(2E)-4-morpholin-4-ylbut-2-enoyl]-5,6,7,8-tetrahydropyrido[4′,3′:4,5]thieno[2,3-d]pyrimidin-4-amine]
9 | 1000 to 10000 | < 200 | 200 to 1000 | O=C(/C=C/CN1CCC(N2CCCCC2)CC1)N1CCc2c(sc3ncnc(Nc4ccc(F)c(Cl)c4)c23)C1 [Example 45, 7-[(2E)-4-(1,4′-bipiperidin-1-yl)but-2-enoyl]-N-(3-chloro-4-fluorophenyl)-5,6,7,8-tetrahydropyrido [4′,3′:4,5]thieno[2,3-d]pyrimidin-4-amine]
10 | 1000 to 10000 | < 200 | 1000 to 10000 | Cc1cccc(COc2ccc(Nc3ncnc4sc5c(c34)CCN(C(=O)/C=C/CN(C)C)C5)cc2Cl)n1 [Example 74, N-{3-chloro-4-[(6-methylpyridin-2-yl)methoxy]phenyl}-7-[(2E)-4-(dimethylamino)but-2-enoyl]-5,6,7,8-tetrahydropyrido [4′,3′:4,5]thieno[2,3-d]pyrimidin-4-amine]

Second part, the molecule before the results:

Row | Structure (SMILES) | IC50 [1] [nM] | IC50 [2] [nM] | IC50 [3] [nM]
11 | CC(O)CN(C/C=C/C(=O)N1CCc2c(sc3ncnc(Nc4ccc(OCc5ccccn5)c(Cl)c4)c23)C1)CC(C)O (stereo not drawn) [Example 52, 1,1′-({(2E)-4-[4-{[3-chloro-4-(pyridin-2-ylmethoxy)phenyl]amino}-5,8-dihydropyrido [4′,3′:4,5]thieno[2,3-d]pyrimidin-7(6H)-yl]-4-oxobut-2-en-1-yl}imino)dipropan-2-ol] | 1000 to 10000 | 200 to 5000 | 1000 to 10000
12 | O=C(/C=C/CN1CCCCC1)N1CCc2c(sc3ncnc(Nc4ccc5c(ccn5Cc5cccc(F)c5)c4)c23)C1 [Example 106, N-[1-(3-fluorobenzyl)-1H-indol-5-yl)-7-[(2E)-4-piperidin-1-ylbut-2-enoyl]-5,6,7,8-tetrahydropyrido [4′,3′:4,5]thieno[2,3-d]pyrimidin-4-amine] | < 200 | < 200 | 200 to 1000
13 | CCN(CC)C/C=C/C(=O)N1CCc2c(sc3ncnc(Nc4ccc5c(cnn5Cc5ccccc5)c4)c23)C1 [Example 95, N-(1-benzyl-1H-indazol-5-yl)-7-[(2E)-4-(diethylamino)but-2-enoyl]-5,6,7,8-tetrahydropyrido [4′,3′:4,5]thieno[2,3-d]pyrimidin-4-amine] | 200 to 1000 | < 200 | 200 to 1000
14 | CC(C)N(C)C/C=C/C(=O)N1CCc2c(sc3ncnc(Nc4ccc(OCc5ccccn5)c(Cl)c4)c23)C1 [Example 63, N-[3-chloro-4-(pyridin-2-ylmethoxy)phenyl]-7-{(2E)-4-[isopropyl(methyl)amino]but-2-enoyl}-5,6,7,8-tetrahydropyrido [4′,3′:4,5]thieno[2,3-d]pyrimidin-4-amine] | 200 to 1000 | < 200 | 200 to 1000
15 | COc1cccc(Nc2ncnc3sc4c(c23)CCN(C(=O)/C=C/CN(C)C)C4)c1 [Example 179, 7-[(2E)-4-(dimethylamino)but-2-enoyl]-N-(3-methoxyphenyl)-5,6,7,8-tetrahydropyrido [4′,3′:4,5]thieno[2,3-d]pyrimidin-4-amine] | 1000 to 10000 | < 200 | 1000 to 10000
16 | O=C(/C=C/CN1CCOCC1)N1CCc2c(sc3ncnc(Nc4ccc5c(ccn5Cc5ccccc5)c4)c23)C1 [Example 105, N-(1-benzyl-1H-indol-5-yl)-7-[(2E)-4-morpholin-4-ylbut-2-enoyl]-5,6,7,8-tetrahydropyrido [4′,3′:4,5]thieno[2,3-d]pyrimidin-4-amine] | < 200 | < 200 | 200 to 1000
17 | CCN(CC)C/C=C/C(=O)N1CCc2c(sc3ncnc(Nc4ccc(OCc5ccccn5)c(Cl)c4)c23)C1 [Example 2, N-[3-chloro-4-(pyridin-2-ylmethoxy)phenyl]-7-[(2E)-4-(diethylamino)but-2-enoyl]-5,6,7,8-tetrahydropyrido[4′,3′:4,5]thieno[2,3-d]pyrimidin-4-amine] | < 200 | < 200 | 1000 to 10000
18 | C#Cc1cccc(Nc2ncnc3sc4c(c23)CCN(C(=O)/C=C/CN(C)C)C4)c1 [Example 17, 7-[(2E)-4-(dimethylamino)but-2-enoyl]-N-(3-ethynylphenyl)-5,6,7,8-tetrahydropyrido[4′,3′:4,5]thieno[2,3-d]pyrimidin-4-amine] | < 200 | < 200 | 200 to 1000
